From patent publication US20130331331A1, “HEXAPEPTIDE WITH IMPROVED ACTIVITY IN THE REPAIR OF CELLULAR DNA OF DERMAL CELLS” (priority 2011, published 2013) come the findings set out here.

Non-standard residues stand in square brackets, D forms with d. Nle = CCCC[C@H](N)C(=O)O

Common to all, as to format: cell-based, human
The subject of one assay is melanocytes strain 1505b. The assay is described as follows: cAMP levels, radioimmunoassay, strain 1505b. To be noted: 1 nM, 45 min, 0.1 mM IBMX. The method, then: Dose-response experiments were carried out on three melanocytic strains, namely strains 1513c, 1505b and 105c melanocytes were treated with 1 pM-10 nM CUV9900 or NDP-MSH, or with 0.1-10 nM MSH for 45 minutes in the presence of 0.1 mM isobutyl methylxanthine (IBMX). The results obtained from strain 1513c are shown in FIG. 3, the results obtained from strain 1505b are shown in FIG. 5a and the results obtained from strain 105c are shown in FIG. 5b. The strains 1505b and 1513c were obtained from the same human adult while the strain 105c was obtained from another human adult. Cyclic AMP is the second messenger for the melanocortin-1 receptor, and assessment is usually performed indicating cellular activity reflective of melanogenesis. Cyclic AMP levels were determined using ^125I-labeled radioimmunoassay kit (Perkin Elmer, Waltham, Mass.), in human melanocytes that were treated with 0 (control), 0.1-10.0 nM α-MSH, or 0.001-10 nM NDP-MSH or 0.001-10.0 nM CUV 9900 for […]. in the presence of 0.1 mM IBMX, a phosphodiesterase inhibitor to prevent cAMP degradation. Triplicate wells were included in each group, and duplicate samples from each well were assayed for cAMP levels. Each data point is the mean percent of control of 6 determinations/group±S.E.

For another assay, the system named is melanocyte strain 1505b. In words: Tyrosinase activity as a measure of stability / residual effect, strain 1505b. How it is done: To determine the residual effect of CUV9900, as compared to NDP-MSH and α-MSH, on tyrosinase activity, melanocytes were treated with either CUV9900 or NDP-MSH at the concentrations previously described for a total of 3 days. Tyrosinase activity was measured at the end of the 3 days of treatment, and 2 and 4 days after maintenance of the melanocytes in the complete absence of any treatment.
(§1) With continued reference to FIGS. 7, 8 and 9, to determine the stability of CUV9900 versus that of NDP-MSH and α-MSH, melanocytes were treated with 1 nM of each peptide, namely with CUV9900, NDP-MSH and α-MSH, for a total of 6 days, or with 1 nM peptides that were incubated for 5 hours at 37° C. prior to addition to the cultures, every other day, for a total of 6 days. Tyrosinase activity was measured at the end of treatment. In the experiments, cell number represents the mean percent of control of 3 determinations/group±SE, and tyrosinase activity data represent the mean percent of control of 6 determinations±S.E. It should be noted that for the sake of reproducibility the experiment of strain 1513c of FIG. 9 was performed once more 6 months later than the experiment of FIG. 7.
Melanocytes were treated for 3 days with the designated concentrations of CUV9900, NDP-MSH, or MSH, then maintained in absence of peptides for 4 days. Tyrosinase activity was determined 3 days after treatment.
Tyrosinase activity as a measure of stability is shown in Tables 4 to 6 below, wherein Table 4 is based on data derived from FIG. 7, Table 5 is based on data derived from FIG. 9, and Table 6 is based on data derived from FIG. 8: […]

The subject of another assay is melanocyte strain 1513c. In words: Cell proliferation as a measure of stability, strain 1513c. The method, then: as §1
Peptides were incubated at 37 degrees Celsius for 5 hours and then split into groups. Cell proliferation was a measure of stability, whereby the experiments on strain 1513c were divided in period 1 and 2 under standard conditions.
Cell proliferation as a measure of stability is shown in Tables 1 to 3 below, wherein Table 1 is based on data derived from FIG. 7, Table 2 is based on data derived from FIG. 9, and Table 3 is based on data derived from FIG. 8: […]

On to “Ac-Nle-Glu His-D-Phe-Arg-Trp-NH2 (Ac-[Nle]EH[dF]RW-NH2; SMILES CCCC[C@H](NC(C)=O)C(=O)N[C@@H](CCC(=O)O)C(=O)N[C@@H](Cc1c[nH]cn1)C(=O)N[C@H](Cc1ccccc1)C(=O)N[C@@H](CCCNC(=N)N)C(=O)N[C@@H](Cc1c[nH]c2ccccc12)C(N)=O) [CUV9900, hexapeptide alpha-MSH analogue]”, for which the “cAMP, potency comparison” value in the assay on melanocytes strain 1505b was “more potent than MSH”. For the same substance, in the assay with melanocyte strain 1505b, the “superior tyrosinase activity in comparison to MSH” value came to 18.7% and the “superior tyrosinase activity in comparison to NDP-MSH” value amounted to 32.1%. Further, in the assay on melanocyte strain 1505b (0.1 nM CUV9900 vs 1 nM MSH), the “residual effects on tyrosinase activity 4 days after peptide removal, CUV9900 vs MSH” value is “equal”. In the assay on melanocyte strain 1513c (strain 1513c), the “more stable than MSH (cell proliferation)” value turned out to be 3.4% and the “more stable than NDP-MSH (cell proliferation)” value is recorded as 0.65%. Besides, the “Cell proliferation (cell number), Mean” value with melanocyte strain 1513c (strain 1513c [2], mean) was 119.9% of control.
